Test results: publication PMC10815238, “New N-Terminal Fatty-Acid-Modified Melittin Analogs with Potent Biological Activity” (International Journal of Molecular Sciences, 2024)

Key:
[1] = Hydrophobicity assay (RP-HPLC retention time); format: physicochemical; details: chromatographic, ChromCore120 C18 column 4.6 x 250 mm 5 μm; 0.1 mg/mL in deionized water; A 0.1% TFA in water, B 0.1% TFA in acetonitrile; 5% B to 90% B over 30 min; 1 mL/min; UV 220 nm; three independent experiments
Source text: The hydrophobicity, amphipathicity, and positive charge distribution of lipopeptides are crucial for their antimicrobial activities. Among these, hydrophobicity has been deemed essential for promoting a hydrophobic interaction with the lipid bilayer, leading to membrane disruption, cytoplasm leakage, and eventual cell death. Lipopeptides with different peptide sequences and chain lengths usually show different hydrophobicities, generating different RTs in the RP-HPLC analysis. The more hydrophobic the lipopeptide, the longer the RT on the column.
Each MDL was dissolved and diluted to 0.1 mg/mL in deionized water (obtained in-house) and then subjected to RP-HPLC on a ChromCore120 C18 column (4.6 × 250 mm, 5 μm) (NanoChrom, Suzhou, China) using 0.1% trifluoroacetic acid (TFA) (Macklin, Shanghai, China) in water as solvent A and 0.1% TFA in acetonitrile (Merck, Darmstadt, Germany) as solvent B. The elution gradient was as follows: 5% B to 90% B over 30 min, 90% B maintained for 2 min, and 90% B to 5% B over 1 min. The flow rate was 1 mL/min and measurements were taken at 220 nm. The retention time was recorded for each MDL.

[2] = CD measurements of secondary structure; format: physicochemical; details: 0.5 mg/mL, 25 °C
Method: The CD spectra of the MDLs were measured at 25 °C on a Chirascan spectrometer (Applied Photophysics, Surrey, UK) using a quartz cell with a 1.0 mm path length, recording from 180 to 260 nm. A scanning speed of 50 nm/min was used and the bandwidth was 1 nm. The optical path and slit width were 0.1 cm and 0.1 nm, respectively. […], 50% TFE (Macklin, Shanghai, China) was used to mimic the hydrophobic condition of the microbial membrane, and 25 mM SDS (Macklin, Shanghai, China) micelles were used to mimic the negatively charged prokaryotic membrane. The observed ellipticity was converted to molar ellipticity using the following equation: θ=θobs(MRW/10×c×l) where [θ] is the molar ellipticity (deg·cm^2·dmol^−1), θobs is the observed ellipticity corrected for the buffer at a given wavelength (mdeg), MRW is the mean residual molecular weight (molecular weight/number of amino acids), c is the peptide concentration (mg/mL), and l is the path length (cm). Assuming lipopeptides were a two-state model, the percentage in the α-helix structure of the MDLs was calculated using the following equation: α-helical content=−([θ]222 +2000)/30,000×100%

E. coli ATCC 25922 = assay: Salt sensitivity (MIC in the presence of physiological salts); format: cell-based, Escherichia coli; set-up: key to MIC, NaCl / MIC, KCl / MIC, MgCl2: MIC in μg/mL (two-fold dilutions 256 to 0.25 μg/mL); details: for MIC, MgCl2: 1 mM MgCl2, unit not given in Table 4; for MIC, FeCl3: 4 mM FeCl3, unit not given in Table 4; for MIC, KCl: 4.5 mM KCl; for MIC, KCl / MIC, NaCl: unit not given in Table 4; for MIC, NaCl: 150 mM NaCl; for MIC, Control: no added salt, unit not given in Table 4 (Table 3 MIC in μg/mL)
Method: (§1) MIC was determined using the broth microdilution method with minor modification. In brief, bacteria (S. aureus ATCC 43300, E. faecalis ATCC 29212, E. coli ATCC 25922, P. aeruginosa ATCC 27853, L. monocytogenes CVCC 3764, B. cereus CVCC 4101, S. Castellani CGMCC 1.1869, and the multidrug-resistant E. coli strain) were cultured in nutrient broth (NB) medium (Macklin, Shanghai, China) to the logarithmic phase and diluted to 1 × 10^6 colony forming units (CFUs)/mL. The MDLs were dissolved to a final concentration of 256~0.25 μg/mL in NB medium using two-fold dilutions. A total of 50 μL of different concentrations of the MDL solutions and an equal volume of bacterial suspension were added to a 96-well plate, which was then incubated at 37 °C for 18 h. The minimum concentrations of the MDLs with no visible growth of bacteria were defined as the corresponding MICs. Media containing bacteria without the MDLs were set as the negative control. Each measurement was performed independently three times.
(§2) This was carried out in triplicate and tested at least twice.

S. aureus ATCC 43300 = assay: as above; format: cell-based, Staphylococcus aureus; set-up: key: MIC in μg/mL (two-fold dilutions 256 to 0.25 μg/mL); details: for MIC, MgCl2: 1 mM MgCl2, unit not given in Table 4; for MIC, FeCl3: 4 mM FeCl3, unit not given in Table 4; for MIC, KCl: 4.5 mM KCl; for MIC, KCl / MIC, NaCl: unit not given in Table 4; for MIC, NaCl: 150 mM NaCl; for MIC, Control: no added salt, unit not given in Table 4 (Table 3 MIC in μg/mL)
Method: as §1, §2

SMILES | RT, Min (RP-HPLC retention time, measure of hydrophobicity) [1] | α-Helix, % ([2]; 25 mM SDS) | β-Fold, % ([2]; 25 mM SDS) | α-Helix, % ([2]; 50% TFE) | β-Fold, % ([2]; 50% TFE) | α-Helix, % ([2]; PBS Buffer) | β-Fold, % ([2]; PBS Buffer) | MIC, MgCl2 (E. coli ATCC 25922) | MIC, FeCl3 (E. coli ATCC 25922) | MIC, KCl (E. coli ATCC 25922) | MIC, NaCl (E. coli ATCC 25922) | MIC, Control (E. coli ATCC 25922) | MIC, MgCl2 (S. aureus ATCC 43300) | MIC, FeCl3 (S. aureus ATCC 43300) | MIC, KCl (S. aureus ATCC 43300) | MIC, NaCl (S. aureus ATCC 43300) | MIC, Control (S. aureus ATCC 43300)
CCCCCCCCCCCCCC(=O)NCC(=O)N[C@H](C(=O)NCC(=O)N[C@@H](C)C(=O)N[C@H](C(=O)N[C@@H](CC(C)C)C(=O)N[C@@H](CCCCN)C(=O)N[C@H](C(=O)N[C@@H](CC(C)C)C(=O)N[C@H](C(=O)N[C@H](C(=O)NCC(=O)N[C@@H](CC(C)C)C(=O)N1CCC[C@H]1C(=O)N[C@@H](C)C(=O)N[C@@H](CC(C)C)C(=O)N[C@H](C(=O)N[C@@H](CO)C(=O)N[C@@H](Cc1c[nH]c2ccccc12)C(=O)N[C@H](C(=O)N[C@@H](CCCCN)C(=O)N[C@@H](CCCNC(=N)N)C(=O)N[C@@H](CCCCN)C(=O)N[C@@H](CCCNC(=N)N)C(=O)N[C@@H](CCC(N)=O)C(=O)N[C@@H](CCC(N)=O)C(N)=O)[C@@H](C)CC)[C@@H](C)CC)[C@@H](C)O)[C@@H](C)O)C(C)C)C(C)C)[C@@H](C)CC [Peptide C14-Mel] | 25.621 ± 0.002 min | 15.5% | 31.7% | 16% | 25.2% | 12% | 31% | 256 | 256 | 64 | 128 | 32 | 256 | 256 | 64 | 64 | 32
CCCCCCCCCCCC(=O)NCC(=O)N[C@H](C(=O)NCC(=O)N[C@@H](C)C(=O)N[C@H](C(=O)N[C@@H](CC(C)C)C(=O)N[C@@H](CCCCN)C(=O)N[C@H](C(=O)N[C@@H](CC(C)C)C(=O)N[C@H](C(=O)N[C@H](C(=O)NCC(=O)N[C@@H](CC(C)C)C(=O)N1CCC[C@H]1C(=O)N[C@@H](C)C(=O)N[C@@H](CC(C)C)C(=O)N[C@H](C(=O)N[C@@H](CO)C(=O)N[C@@H](Cc1c[nH]c2ccccc12)C(=O)N[C@H](C(=O)N[C@@H](CCCCN)C(=O)N[C@@H](CCCNC(=N)N)C(=O)N[C@@H](CCCCN)C(=O)N[C@@H](CCCNC(=N)N)C(=O)N[C@@H](CCC(N)=O)C(=O)N[C@@H](CCC(N)=O)C(N)=O)[C@@H](C)CC)[C@@H](C)CC)[C@@H](C)O)[C@@H](C)O)C(C)C)C(C)C)[C@@H](C)CC [Peptide C12-Mel] | 23.344 ± 0.004 min | 15.9% | 29.5% | 19% | 21.5% | 11.5% | 31.3% | 128 | 128 | 32 | 32 |  | 64 | 64 | 32 | 16 | 8
CCCCCCCCCCCCCCCC(=O)NCC(=O)N[C@H](C(=O)NCC(=O)N[C@@H](C)C(=O)N[C@H](C(=O)N[C@@H](CC(C)C)C(=O)N[C@@H](CCCCN)C(=O)N[C@H](C(=O)N[C@@H](CC(C)C)C(=O)N[C@H](C(=O)N[C@H](C(=O)NCC(=O)N[C@@H](CC(C)C)C(=O)N1CCC[C@H]1C(=O)N[C@@H](C)C(=O)N[C@@H](CC(C)C)C(=O)N[C@H](C(=O)N[C@@H](CO)C(=O)N[C@@H](Cc1c[nH]c2ccccc12)C(=O)N[C@H](C(=O)N[C@@H](CCCCN)C(=O)N[C@@H](CCCNC(=N)N)C(=O)N[C@@H](CCCCN)C(=O)N[C@@H](CCCNC(=N)N)C(=O)N[C@@H](CCC(N)=O)C(=O)N[C@@H](CCC(N)=O)C(N)=O)[C@@H](C)CC)[C@@H](C)CC)[C@@H](C)O)[C@@H](C)O)C(C)C)C(C)C)[C@@H](C)CC [Peptide C16-Mel] | 26.892 ± 0.005 min | 15.2% | 33% | 14.3% | 26.8% | 12.5% | 30.4% | >256 | >256 | 256 | >256 | 128 | >256 | >256 | 256 | 128 | 64
